The NIST ThermoML archive (doi:10.1021/acs.jced.5b00662)
Values joined by “and” are separate entries in the source; they are usually repeats but may differ in a detail not shown here. Identical values can stand only once.

Key:
[1] = 101.33 kPa, Liquid; for speed of sound: Sing-around technique in a fixed-path interferometer; for mass density: Vibrating tube method; for viscosity: Concentric cylinders viscometry
[2] = refractive index (Na D-line) (dimensionless); settings: 101.33 kPa, Liquid, Standard Abbe refractometry

OCCOCCOCCO [triethylene glycol]
Settings	mass density, [1]	refractive index, [2]	speed of sound, [1] [m/s]	viscosity, [1] [mPa·s]
283.15 K	1131.3 kg/m3	1.45944	1658.7	–
288.15 K	1128.6 kg/m3 and 1127.4 kg/m3	1.45774	1642.8	63.57
293.15 K	1124.6 kg/m3 and 1123.5 kg/m3	1.4561	1627.2	48.05
298.15 K	1119.7 kg/m3 and 1120.7 kg/m3	1.45447	1611.5	37.27
303.15 K	1115.8 kg/m3 and 1116.8 kg/m3	1.45283	1596.2	29.41
308.15 K	1111.9 kg/m3 and 1112.9 kg/m3	–	1581.1	23.6
313.15 K	1108 kg/m3 and 1109 kg/m3	1.44955	1566	19.16
318.15 K	1105.1 kg/m3	–	–	15.86
323.15 K	1100.2 kg/m3 and 1101.2 kg/m3	1.44626	1536.3	13.25
328.15 K	1097.3 kg/m3	–	–	11.19
333.15 K	1092.4 kg/m3 and 1093.4 kg/m3	1.44293	1506.8	9.528
338.15 K	1089.5 kg/m3	–	–	8.221
343.15 K	1085.6 kg/m3 and 1084.5 kg/m3	1.43956	1477.5	7.137
348.15 K	1081.7 kg/m3	–	–	6.243
353.15 K	1077.8 kg/m3	1.43622	–	5.487
358.15 K	1073.8 kg/m3	–	–	4.874
363.15 K	1069.8 kg/m3	–	–	4.346
368.15 K	1065.9 kg/m3	–	–	3.896
373.15 K	1061.9 kg/m3	–	–	3.515

COCCOCCOC [2,5,8-trioxanonane]
Settings	mass density, [1]	refractive index, [2]	speed of sound, [1] [m/s]	viscosity, [1] [mPa·s]
283.15 K	953.7 kg/m3	1.41249	1340.7	–
288.15 K	950.2 kg/m3 and 948.7 kg/m3	1.4102	1320	1.161
293.15 K	945.2 kg/m3 and 943.8 kg/m3	1.40802	1299.9	1.081
298.15 K	938.8 kg/m3 and 940.2 kg/m3	1.40579	1280	1.011
303.15 K	933.8 kg/m3 and 935.2 kg/m3	1.40359	1260.1	0.942
308.15 K	928.8 kg/m3 and 930.2 kg/m3	–	1240.3	0.879
313.15 K	923.8 kg/m3 and 925.2 kg/m3	1.39921	1220.6	0.825
318.15 K	920.2 kg/m3	–	–	0.767
323.15 K	913.7 kg/m3 and 915.2 kg/m3	1.3949	1181.7	0.718
328.15 K	910.1 kg/m3	–	–	0.674
333.15 K	903.6 kg/m3 and 905 kg/m3	1.3905	1143.4	0.633
338.15 K	899.9 kg/m3	–	–	0.599
343.15 K	894.8 kg/m3 and 893.4 kg/m3	1.38623	1105.8	0.566
348.15 K	889.7 kg/m3	–	–	0.537
353.15 K	884.6 kg/m3	1.38178	–	0.505
358.15 K	879.4 kg/m3	–	–	0.486
363.15 K	874.2 kg/m3	–	–	0.464
368.15 K	869 kg/m3	–	–	0.444
373.15 K	863.8 kg/m3	–	–	0.441

COCCOCCO [2-(2-methoxyethoxy)ethanol]
Settings	mass density, [1]	refractive index, [2]	speed of sound, [1] [m/s]	viscosity, [1] [mPa·s]
283.15 K	1028.6 kg/m3	1.42914	1467.7	–
288.15 K	1025.3 kg/m3 and 1024.2 kg/m3	1.42723	1450.2	4.514
293.15 K	1021 kg/m3 and 1019.8 kg/m3	1.42498	1432.7	3.963
298.15 K	1015.4 kg/m3 and 1016.3 kg/m3	1.4239	1415.4	3.403
303.15 K	1011 kg/m3 and 1011.9 kg/m3	1.42174	1398.1	3
308.15 K	1006.6 kg/m3 and 1007.4 kg/m3	–	1380.9	2.666
313.15 K	1002.1 kg/m3 and 1003 kg/m3	1.41733	1363.9	2.373
318.15 K	998.8 kg/m3	–	–	2.148
323.15 K	993.2 kg/m3 and 994.3 kg/m3	1.41368	1329.7	1.946
328.15 K	989.8 kg/m3	–	–	1.772
333.15 K	984.1 kg/m3 and 985.3 kg/m3	1.4101	1296.1	1.606
338.15 K	981 kg/m3	–	–	1.489
343.15 K	976.5 kg/m3 and 975 kg/m3	1.40635	1262.7	1.372
348.15 K	971.8 kg/m3	–	–	1.268
353.15 K	967.2 kg/m3	1.40241	–	1.155
358.15 K	962.5 kg/m3	–	–	1.094
363.15 K	957.9 kg/m3	–	–	1.019
368.15 K	953.1 kg/m3	–	–	0.95
373.15 K	948.5 kg/m3	–	–	0.877

COCCOCCOCCOCCOC [2,5,8,11,14-pentaoxapentadecane]
Settings	mass density, [1]	refractive index, [2]	speed of sound, [1] [m/s]	viscosity, [1] [mPa·s]
283.15 K	1020.7 kg/m3	1.43599	1439.7	–
288.15 K	1017 kg/m3 and 1016.1 kg/m3	1.43414	1420.3	4.337
293.15 K	1012.3 kg/m3 and 1011.5 kg/m3	1.43196	1401	3.846
298.15 K	1006.8 kg/m3 and 1007.6 kg/m3	1.42992	1382	3.335
303.15 K	1002.2 kg/m3 and 1003.1 kg/m3	1.42777	1363.1	2.967
308.15 K	997.6 kg/m3 and 998.8 kg/m3	–	1344.3	2.66
313.15 K	993 kg/m3 and 994.1 kg/m3	1.42373	1325.6	2.389
318.15 K	989.5 kg/m3	–	–	2.183
323.15 K	983.7 kg/m3 and 984.9 kg/m3	1.41973	1289.1	1.995
328.15 K	980.2 kg/m3	–	–	1.832
333.15 K	974.5 kg/m3 and 975.6 kg/m3	1.41578	1253.4	1.677
338.15 K	971 kg/m3	–	–	1.566
343.15 K	966.5 kg/m3 and 965.3 kg/m3	1.41174	1218.5	1.456
348.15 K	961.9 kg/m3	–	–	1.358
353.15 K	957.3 kg/m3	1.40773	–	1.25
358.15 K	952.7 kg/m3	–	–	1.188
363.15 K	948.1 kg/m3	–	–	1.115
368.15 K	943.5 kg/m3	–	–	1.047
373.15 K	938.9 kg/m3	–	–	0.978

CCOCCOCCOCC [diethylene glycol diethyl ether]
Settings	mass density, [1]	refractive index, [2]	speed of sound, [1] [m/s]	viscosity, [1] [mPa·s]
283.15 K	917 kg/m3	1.41658	1303.4	–
288.15 K	914.4 kg/m3 and 912.2 kg/m3	1.41428	1283.2	1.483
293.15 K	909.6 kg/m3 and 907.4 kg/m3	1.41202	1263.1	1.353
298.15 K	902.6 kg/m3 and 904.7 kg/m3	1.40978	1243.3	1.254
303.15 K	897.7 kg/m3 and 899.8 kg/m3	1.40749	1223.4	1.156
308.15 K	892.9 kg/m3 and 895 kg/m3	–	1203.9	1.067
313.15 K	888.1 kg/m3 and 890.1 kg/m3	1.40296	1184.1	0.9874
318.15 K	885.3 kg/m3	–	–	0.916
323.15 K	878.4 kg/m3 and 880.4 kg/m3	1.39838	1145.1	0.852
328.15 K	875.6 kg/m3	–	–	0.795
333.15 K	868.7 kg/m3 and 870.7 kg/m3	1.39382	1107.9	0.744
338.15 K	865.9 kg/m3	–	–	0.699
343.15 K	861 kg/m3 and 858.9 kg/m3	1.38929	1071.6	0.658
348.15 K	856.1 kg/m3	–	–	0.621
353.15 K	851.2 kg/m3	1.38474	–	0.587
358.15 K	846.3 kg/m3	–	–	0.556
363.15 K	841.4 kg/m3	–	–	0.526
368.15 K	836.5 kg/m3	–	–	0.498
373.15 K	831.6 kg/m3	–	–	0.47

OCCOCCO [diethylene glycol]
Settings	mass density, [1]	refractive index, [2]	speed of sound, [1] [m/s]	viscosity, [1] [mPa·s]
283.15 K	1123.3 kg/m3	1.45019	1615.9	–
288.15 K	1121.4 kg/m3 and 1119.8 kg/m3	1.4486	1603.6	47.14
293.15 K	1117.8 kg/m3 and 1116.2 kg/m3	1.44702	1591.4	36.02
298.15 K	1112.7 kg/m3 and 1114.2 kg/m3	1.4454	1579.2	28.23
303.15 K	1109.1 kg/m3 and 1110.6 kg/m3	1.44379	1566.9	22.48
308.15 K	1105.5 kg/m3 and 1107 kg/m3	–	1554.9	18.18
313.15 K	1101.9 kg/m3 and 1103.4 kg/m3	1.44068	1542.8	14.85
318.15 K	1099.7 kg/m3	–	–	12.4
323.15 K	1094.7 kg/m3 and 1096.1 kg/m3	1.43745	1518.8	10.42
328.15 K	1092.5 kg/m3	–	–	8.849
333.15 K	1087.4 kg/m3 and 1088.8 kg/m3	1.43424	1494.5	7.57
338.15 K	1085.2 kg/m3	–	–	6.561
343.15 K	1081.5 kg/m3 and 1080 kg/m3	1.43105	1470.1	5.718
348.15 K	1077.8 kg/m3	–	–	5.019
353.15 K	1074.1 kg/m3	1.42786	–	4.429
358.15 K	1070.3 kg/m3	–	–	3.944
363.15 K	1066.6 kg/m3	–	–	3.527
368.15 K	1062.8 kg/m3	–	–	3.169
373.15 K	1059 kg/m3	–	–	2.871

CCOCCO [2-ethoxyethan-1-ol]
Settings	mass density, [1]	refractive index, [2]	speed of sound, [1] [m/s]	viscosity, [1] [mPa·s]
283.15 K	941.2 kg/m3	1.4149	1360.6	–
288.15 K	936.8 kg/m3 and 936.7 kg/m3	1.4125	1342	2.314
293.15 K	932.3 kg/m3 and 932.2 kg/m3	1.41024	1323.9	2.066
298.15 K	927.6 kg/m3 and 927.7 kg/m3	1.40803	1305.7	1.845
303.15 K	923.1 kg/m3	1.40613	1286.7	1.661
308.15 K	918.5 kg/m3	–	1268.6	1.503
313.15 K	913.8 kg/m3 and 913.9 kg/m3	1.4018	1250.2	1.365
318.15 K	909.3 kg/m3	–	–	1.247
323.15 K	904.5 kg/m3 and 904.6 kg/m3	1.39691	1213.8	1.143
328.15 K	899.9 kg/m3	–	–	1.051
333.15 K	895 kg/m3 and 895.1 kg/m3	1.39271	1178.5	0.962
338.15 K	890.4 kg/m3	–	–	0.895
343.15 K	885.5 kg/m3 and 885.2 kg/m3	1.38849	1143.7	0.829
348.15 K	880.7 kg/m3	–	–	0.77
353.15 K	875.8 kg/m3	1.3838	–	0.725
358.15 K	871 kg/m3	–	–	0.666
363.15 K	866.1 kg/m3	–	–	0.623
368.15 K	861.2 kg/m3	–	–	0.584
373.15 K	856.3 kg/m3	–	–	0.518
